The data set can be described thus: recombinant UMI read abundance after kanamycin selection (control-corrected) (log10(CPM+1)); higher = more efficient recombination; extreme values may be limits of the assay; sequences stand for … in AGTGCAGAGAAAATCGGCCAGTTTTCTCTGCCTGCAGTCCGCATGCCGTGGGACCCCTTGGGTTCTAACCTGTTGCCTAGATTTATGCAGCGGACTGCCTTTCTCCCAAAGTGATAAACCGG…AGGTTGGTTTCACT; site = the 11-nt donor. The method in brief: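 Two replicates each of selected and unselected plating were used in this pooled Escherichia coli screen of donor and donor-binding-loop pairs for the IS621 bridge recombinase. Selection was with IPTG (0.07 mM) and kanamycin. Counts of recombinant UMIs, amplified across the donor–target junction, were converted to CPM, averaged, scaled by control-derived factors and reported as log10(CPM+1).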
In the case of “ATTATCCCATGGACCGGTTTTCCCGGTAATCCGTATTTGCC (site ATTATCCCTGG)”, the “recombinant UMI read abundance (log10)” value was 0.749.
Then “ATTCACGCATGGACCGGTTTTCCCGGTAATCCGTATTTGCA (site ATTCACGCTTG)”, with 2.42.
As for “ATTCAGCCATGGACCGGTTTTCCCGGTAATCCGTATTTGTT (site ATTCAGCCTAA)”, the figure is 0.0136.
For “ATTCATACATGGACCGGTTTTCCCGGTAATCCGTATTTGGC (site ATTCATACTGC)”, the “recombinant UMI read abundance (log10)” value stood at 1.81.
Then “ATTCCATCATGGACCGGTTTTCCCGGTAATCCGTATTTGAC (site ATTCCATCTGT)”, with 0.764.
Then “ATTCCGACATGGACCGGTTTTCCCGGTAATCCGTATTTGTG (site ATTCCGACTCA)”, with 0.00802; and “ATTCGAGCATGGACCGGTTTTCCCGGTAATCCGTATTTGAA (site ATTCGAGCTTT)”, with 1.31; and “ATTGAAACATGGACCGGTTTTCCCGGTAATCCGTATTTGGT (site ATTGAAACTAC)”, with 1.66.
Regarding “ATTGAAACATGGACCGGTTTTCCCGGTAATCCGTATTTGGT (site ATTGACACTAC)”, the “recombinant UMI read abundance (log10)” value was 0.0867.
As for “ATTGAAACATGGACCGGTTTTCCCGGTAATCCGTATTTGGT (site ATTGAGACTAC)”, the “recombinant UMI read abundance (log10)” value is 0.484.
Consider “ATTGAAACATGGACCGGTTTTCCCGGTAATCCGTATTTGGT (site ATTGATACTAC)”, for which the “recombinant UMI read abundance (log10)” value was found to be 0.0144.
Then “ATTGACCCATGGACCGGTTTTCCCGGTAATCCGTATTTGGA (site ATTGACCCTTC)”, with 0.0199.
On to “ATTGAGACATGGACCGGTTTTCCCGGTAATCCGTATTTGGA (site ATTGAGACTAC)”, for which the “recombinant UMI read abundance (log10)” value stood at 0.0442.
For the sequence “ATTGAGACATGGACCGGTTTTCCCGGTAATCCGTATTTGGA (site ATTGAGACTCC)”, the “recombinant UMI read abundance (log10)” value was 0.663.
As for “ATTGAGACATGGACCGGTTTTCCCGGTAATCCGTATTTGGA (site ATTGAGACTGC)”, the figure is 0.645.
With “ATTGAGACATGGACCGGTTTTCCCGGTAATCCGTATTTGGA (site ATTGAGACTTC)”, the “recombinant UMI read abundance (log10)” value came out at 1.
Then “ATTGAGACATGGACCGGTTTTCCCGGTAATCCGTATTTGGT (site AATGAGACTAC)”, with 0.233; and “ATTGAGACATGGACCGGTTTTCCCGGTAATCCGTATTTGGT (site ACTGAGACTAC)”, with 0.972; and “ATTGAGACATGGACCGGTTTTCCCGGTAATCCGTATTTGGT (site AGTGAGACTAC)”, with 0.609.
Then “ATTGAGACATGGACCGGTTTTCCCGGTAATCCGTATTTGGT (site ATAGAGACTAC)”, with 1.78; and “ATTGAGACATGGACCGGTTTTCCCGGTAATCCGTATTTGGT (site ATCGAGACTAC)”, with 0.854.
Consider “ATTGAGACATGGACCGGTTTTCCCGGTAATCCGTATTTGGT (site ATGGAGACTAC)”, for which the “recombinant UMI read abundance (log10)” value worked out at 0.639.
As for “ATTGAGACATGGACCGGTTTTCCCGGTAATCCGTATTTGGT (site ATTAAGACTAC)”, the figure is 1.62; as for “ATTGAGACATGGACCGGTTTTCCCGGTAATCCGTATTTGGT (site ATTCAGACTAC)”, 0.296; as for “ATTGAGACATGGACCGGTTTTCCCGGTAATCCGTATTTGGT (site ATTGAAACTAC)”, 1.88.
In the case of “ATTGAGACATGGACCGGTTTTCCCGGTAATCCGTATTTGGT (site ATTGACACTAC)”, the “recombinant UMI read abundance (log10)” value was 0.0545.
Take “ATTGAGACATGGACCGGTTTTCCCGGTAATCCGTATTTGGT (site ATTGAGACTAA)”: the “recombinant UMI read abundance (log10)” value was 0.949.
As for “ATTGAGACATGGACCGGTTTTCCCGGTAATCCGTATTTGGT (site ATTGAGACTAC)”, the figure is 1.39; as for “ATTGAGACATGGACCGGTTTTCCCGGTAATCCGTATTTGGT (site ATTGAGACTAG)”, 0.772.
As for “ATTGAGACATGGACCGGTTTTCCCGGTAATCCGTATTTGGT (site ATTGAGACTAT)”, the figure is 1.17.
Regarding “ATTGAGACATGGACCGGTTTTCCCGGTAATCCGTATTTGGT (site ATTGAGACTCC)”, the “recombinant UMI read abundance (log10)” value turned out to be 0.379.
For the sequence “ATTGAGACATGGACCGGTTTTCCCGGTAATCCGTATTTGGT (site ATTGAGACTGC)”, the “recombinant UMI read abundance (log10)” value was determined as 0.953.
As for “ATTGAGACATGGACCGGTTTTCCCGGTAATCCGTATTTGGT (site ATTGAGACTTC)”, the figure is 0.0155.
Then “ATTGAGACATGGACCGGTTTTCCCGGTAATCCGTATTTGGT (site ATTGAGCCTAC)”, with 0.0258; and “ATTGAGACATGGACCGGTTTTCCCGGTAATCCGTATTTGGT (site ATTGAGGCTAC)”, with 0.186; and “ATTGAGACATGGACCGGTTTTCCCGGTAATCCGTATTTGGT (site ATTGAGTCTAC)”, with 1.06.
As for “ATTGAGACATGGACCGGTTTTCCCGGTAATCCGTATTTGGT (site ATTGATACTAC)”, the figure is 0.512.
Take “ATTGAGACATGGACCGGTTTTCCCGGTAATCCGTATTTGGT (site ATTGCGACTAC)”: the “recombinant UMI read abundance (log10)” value is 0.151.
Then “ATTGAGACATGGACCGGTTTTCCCGGTAATCCGTATTTGGT (site ATTGGGACTAC)”, with 0.407; and “ATTGAGACATGGACCGGTTTTCCCGGTAATCCGTATTTGGT (site ATTGTGACTAC)”, with 0.471.
For “ATTGAGACATGGACCGGTTTTCCCGGTAATCCGTATTTGGT (site ATTTAGACTAC)”, the “recombinant UMI read abundance (log10)” value was found to be 0.353.
As for “ATTGAGACATGGACCGGTTTTCCCGGTAATCCGTATTTGGT (site CTTGAGACTAC)”, the figure is 0.935; as for “ATTGAGACATGGACCGGTTTTCCCGGTAATCCGTATTTGGT (site GTTGAGACTAC)”, 0.235.
Then “ATTGAGACATGGACCGGTTTTCCCGGTAATCCGTATTTGGT (site TTTGAGACTAC)”, with 0.435; and “ATTGATACATGGACCGGTTTTCCCGGTAATCCGTATTTGGT (site ATTGAAACTAC)”, with 0.445; and “ATTGATACATGGACCGGTTTTCCCGGTAATCCGTATTTGGT (site ATTGACACTAC)”, with 0.179.
As for “ATTGATACATGGACCGGTTTTCCCGGTAATCCGTATTTGGT (site ATTGAGACTAC)”, the figure is 0.00596; as for “ATTGATACATGGACCGGTTTTCCCGGTAATCCGTATTTGGT (site ATTGATACTAC)”, 1.33; as for “ATTGCAACATGGACCGGTTTTCCCGGTAATCCGTATTTGGG (site ATTGCAACTCC)”, 0.0185.
On to “ATTGCCCCATGGACCGGTTTTCCCGGTAATCCGTATTTGTC (site ATTGCCCCTGA)”, for which the “recombinant UMI read abundance (log10)” value turned out to be 0.
As for “ATTGCGGCATGGACCGGTTTTCCCGGTAATCCGTATTTGCT (site ATTGCGGCTAG)”, the figure is 1.27.
Consider “ATTGCGGCATGGACCGGTTTTCCCGGTAATCCGTATTTGCT (site CTTGCGGCTAG)”, for which the “recombinant UMI read abundance (log10)” value came to 0.161.

The record behind these values is the supplement of paper PMC11208160.
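Also: IS621 bridge recombinase in Escherichia coli cells against a fixed T5 target plasmid.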
